We go through 18 molecules from US8129398B2 (priority 2008, dated 2012).

Molecules are shown by their SMILES.

This experiment deals with T1, HIV-integrase (Human immunodeficiency virus type 1 group M subtype B, UniProt P12497).
T1 construct: Recombinant integrase (0.26 ng) was incubated with the beads
Nature of the experiment: HIV-Integrase Inhibition Activity (SPA bead integration assay with P33 labeled target DNA). Format: biochemical. To be noted: recombinant integrase, class symbols; read-out: in vitro activity. The procedure, abridged: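 Biotinylated substrate DNA on streptavidin SPA beads loaded with recombinant integrase (90 min, 37° C), washed, then inhibitor plus 0.1 fmol P33-labeled target DNA added. Reaction stopped with 10 mM EDTA; integration measured as CPM by scintillation, giving IC50 ranks.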
Regarding `CC(=O)Nc1cncc(C(=O)NC23CCC(CC2)Cn2c3nc(C(=O)NCc3ccc(F)cc3)c(O)c2=O)c1` [Example 321, 7,10-Ethanopyrimido[1,2-a]azepine-2-carboxamide, 10-[[[5-(acetylamino)-3-pyridinyl]carbonyl]amino]-N-[(4-fluorophenyl)methyl]-4,6,7,8,9,10-hexahydro-3-hydroxy-4-oxo-], the IC50 was < 10 nM.
For `CN(C)C(=O)C(=O)NC12CCC(CC1)Cn1c2nc(C(=O)NCC2CC2)c(O)c1=O` [Example 352] the value was > 100 nM; for `CN(C)C12CCC(Cn3c1nc(C(=O)NCc1ccc(F)cc1)c(O)c3=O)C2` (stereo not drawn) [Example 195, 7,10-Methanopyrimido[1,2-a]azepine-2-carboxamide, 10-(dimethylamino)-N-[(4-fluorophenyl)methyl]-4,6,7,8,9,10-hexahydro-3-hydroxy-4-oxo-], 10 to 100 nM.
For `CO[C@H]1C[C@@H](C(=O)NC23CCC(CC2)Cn2c3nc(C(=O)NCc3ccc(F)c(C)c3)c(O)c2=O)N(C(=O)c2ncn(C)n2)C1` [Example 299, 7,10-Ethanopyrimido[1,2-a]azepine-2-carboxamide, N-[(4-fluoro-3-methylphenyl)methyl]-4,6,7,8,9,10-hexahydro-3-hydroxy-10-[[[(2S,4S)-4-methoxy-1-[(1-methyl-1H-1,2,4-triazol-3-yl)carbonyl]-2-pyrrolidinyl]carbonyl]amino]-4-oxo-], the IC50 is < 10 nM.
For `CC(=O)Nc1cc(C(=O)NC23CCC(CC2)Cn2c3nc(C(=O)NCc3ccc(F)cc3)c(O)c2=O)ccn1` [Example 318, 7,10-Ethanopyrimido[1,2-a]azepine-2-carboxamide, 10-[[[2-(acetylamino)-4-pyridinyl]carbonyl]amino]-N-[(4-fluorophenyl)methyl]-4,6,7,8,9,10-hexahydro-3-hydroxy-4-oxo-] the value was < 10 nM.
Take `Cc1cc(CNC(=O)c2nc3n(c(=O)c2O)CC2CCC3(N(C)C(=O)C(=O)N3CC[C@@H](F)C3)CC2)ccc1F` [Example 164, N-(4-Fluoro-3-methylbenzyl)-10-((((3R)-3-fluoro-1-pyrrolidinyl)(oxo)acetyl)(methyl)amino)-3-hydroxy-4-oxo-4,6,7,8,9,10-hexahydro-7,10-ethanopyrimido[1,2-a]azepine-2-carboxamide]: the IC50 is < 10 nM.
Take `O=C(NC12CCC(CC1)Cn1c2nc(C(=O)NCc2ccc(F)cc2)c(O)c1=O)C(=O)N1CCN(C(=O)N2CCOCC2)CC1` [Example 79, N-(4-Fluorobenzyl)-3-hydroxy-10-(((4-(4-morpholinylcarbonyl)-1-piperazinyl)(oxo)acetyl)amino)-4-oxo-4,6,7,8,9,10-hexahydro-7,10-ethanopyrimido[1,2-a]azepine-2-carboxamide]: the IC50 was < 10 nM.
Take `CC(C)N(C)C(=O)C(=O)NC12CCC(CCn3c1nc(C(=O)NCc1ccc(F)cc1)c(O)c3=O)C2` (stereo not drawn) [Example 206, Ethanediamide, N′-[2-[[[(4-fluorophenyl)methyl]amino]carbonyl]-7,8,9,10-tetrahydro-3-hydroxy-4-oxo-8,11-methano-4H-pyrimido[1,2-a]azocin-11(6H)-yl]-N-methyl-N-(1-methylethyl)-]: the IC50 is < 10 nM.
As to `Cc1cc(C(=O)NC23CCC(CC2)Cn2c3nc(C(=O)NCc3ccc(F)cc3)c(O)c2=O)n(C)n1` [Example 241, 7,10-Ethanopyrimido[1,2-a]azepine-2-carboxamide, 10-[[(1,3-dimethyl-1H-pyrazol-5-yl)carbonyl]amino]-N-[(4-fluorophenyl)methyl]-4,6,7,8,9,10-hexahydro-3-hydroxy-4-oxo-], the IC50 was < 10 nM.
As to `O=C(NC12CCC(CCn3c1nc(C(=O)NCc1ccc(F)cc1)c(O)c3=O)C2)C(=O)N1CC[C@@H](F)C1` (stereo partly drawn) [Example 208, 8,11-Methano-4H-pyrimido[1,2-a]azocine-2-carboxamide, N-[(4-fluorophenyl)methyl]-11-[[2-[(3R)-3-fluoro-1-pyrrolidinyl]-1,2-dioxoethyl]amino]-6,7,8,9,10,11-hexahydro-3-hydroxy-4-oxo-], the IC50 was < 10 nM.
With `COC(=O)C(=O)NC12CCC(CCn3c1nc(C(=O)NCc1ccc(F)cc1)c(O)c3=O)C2` (stereo not drawn) [Example 210, Acetic acid, [[2-[[[(4-fluorophenyl)methyl]amino]carbonyl]-7,8,9,10-tetrahydro-3-hydroxy-4-oxo-8,1′-methano-4H-pyrimido[1,2-a]azocin-11(6H)-yl]amino]oxo-, methyl ester], the IC50 was < 10 nM.
For `CN(C(=O)C(=O)N1CCCC1)C12CCC(CC1)Cn1c2nc(C(=O)NCc2ccc(F)cc2)c(O)c1=O` [Example 153, N-(4-Fluorobenzyl)-3-hydroxy-10-(methyl(oxo(1-pyrrolidinyl)acetyl)amino)-4-oxo-4,6,7,8,9,10-hexahydro-7,10-ethanopyrimido[1,2-a]azepine-2-carboxamide] the value was < 10 nM; for `O=C(NC12CCC(CC1)Cn1c2nc(C(=O)NCc2ccc(F)cc2)c(O)c1=O)C(=O)N1CCC1` [Example 67, 10-((1-Azetidinyl(oxo)acetyl)amino)-N-(4-fluorobenzyl)-3-hydroxy-4-oxo-4,6,7,8,9,10-hexahydro-7,10-ethanopyrimido[1,2-a]azepine-2-carboxamide], < 10 nM.
As to `O=C(NC12CCC(CCn3c1nc(C(=O)NCc1ccc(F)c(Cl)c1)c(O)c3=O)C2)C(=O)N1CC[C@@H](F)C1` (stereo partly drawn) [Example 215, 8,11-Methano-4H-pyrimido[1,2-a]azocine-2-carboxamide, N-[(3-chloro-4-fluorophenyl)methyl]-11-[[2-[(3R)-3-fluoro-1-pyrrolidinyl]-1,2-dioxoethyl]amino]-6,7,8,9,10,11-hexahydro-3-hydroxy-4-oxo-], the IC50 was < 10 nM.
Next, `O=C(NCc1ccc(F)cc1)c1nc2n(c(=O)c1O)CC1CCC2(NC(=O)[C@H]2CCCN2)CC1` [Example 252, 7,10-Ethanopyrimido[1,2-a]azepine-2-carboxamide, N-[(4-fluorophenyl)methyl]-4,6,7,8,9,10-hexahydro-3-hydroxy-4-oxo-10-[[(2R)-2-pyrrolidinylcarbonyl]amino]-]: 10 to 100 nM; `O=C(NC12CCC(CC1)Cn1c2nc(C(=O)NCc2ccc(F)cc2)c(O)c1=O)C(=O)N1CCN(S(=O)(=O)c2ccc(S(=O)(=O)N3CCOCC3)cc2)CC1` [Example 149, N-(4-Fluorobenzyl)-3-hydroxy-10-(((4-((4-(4-morpholinylsulfonyl)phenyl)sulfonyl)-1-piperazinyl)(oxo)acetyl)amino)-4-oxo-4,6,7,8,9,10-hexahydro-7,10-ethanopyrimido[1,2-a]azepine-2-carboxamide]: < 10 nM.
Consider `CC(C)C(=O)N1CCCC1C(=O)NC12CCC(CC1)Cn1c2nc(C(=O)NCc2ccc(F)cc2)c(O)c1=O` (stereo not drawn) [Example 399], for which the IC50 is < 10 nM.
For `CC(=O)N1CCC1C(=O)NC12CCC(CC1)Cn1c2nc(C(=O)NCc2ccc(F)c(C)c2)c(O)c1=O` (stereo in doubt) [Example 275, 7,10-Ethanopyrimido[1,2-a]azepine-2-carboxamide, 10-[[[(2S)-1-acetyl-2-azetidinyl]carbonyl]amino]-N-[(4-fluoro-3-methylphenyl)methyl]-4,6,7,8,9,10-hexahydro-3-hydroxy-4-oxo-] the value was < 10 nM.
